Measurements from the supplement of paper PMC5908809.

Assays:
[1] = tested on: normal NK cells expanded with K562-aAPC; experiment: drug sensitivity score (DSS) (DSS units); higher = more sensitive; extreme values may be limits of the assay; conditions: 72 h; IL-2 2.5 ng/mL
Experimental: (§1)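 Drug sensitivity and resistance testing on K562-aAPC-expanded normal NK cells: 5 concentrations (10-fold steps over a 10,000-fold range), 72 h at 37 °C, viability by CellTiter-Glo normalised to DMSO and benzethonium chloride controls; DSS from the fitted curve.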

KAI3 (IL-2 2.5 ng/mL) [2] = experiment: percent inhibition of viability; higher = more inhibition; conditions: 72 h
IMC-1 (IL-2 20 ng/mL) [3] = experiment: as above; conditions: 72 h
KHYG-1 (IL-2 2.5 ng/mL) [4] = experiment: as above; conditions: 72 h
DERL-7 (IL-2 2.5 ng/mL) [5] = experiment: as above; conditions: 72 h
[6] = tested on: normal primary NK cells, pool 1 (3 donors) (IL-2 2.5 ng/mL); experiment: as above; conditions: 72 h
NK-92 (IL-2 2.5 ng/mL) [7] = experiment: as above; conditions: 72 h
NKL (IL-2 2.5 ng/mL) [8] = experiment: as above; conditions: 72 h
YT (IL-2 2.5 ng/mL) [9] = experiment: as above; conditions: 72 h
[10] = tested on: normal primary NK cells, pool 3 (3 donors) (IL-2 2.5 ng/mL); experiment: as above; conditions: 72 h
SNK-6 (IL-2 2.5 ng/mL) [11] = experiment: as above; conditions: 72 h
[12] = tested on: normal primary NK cells, pool 1 (3 donors), resting (IL-2 0 ng/mL); experiment: as above; conditions: 72 h
[13] = tested on: normal primary NK cells, pool 2 (3 donors) (IL-2 2.5 ng/mL); experiment: as above; conditions: 72 h
NK-YS (IL-2 2.5 ng/mL) [14] = experiment: as above; conditions: 72 h
KAI3 (IL-2 2.5 ng/mL) [15] = experiment: drug sensitivity score (DSS) (DSS units); higher = more sensitive; extreme values may be limits of the assay; conditions: 72 h
IMC-1 (IL-2 20 ng/mL) [16] = experiment: as above; conditions: 72 h
KHYG-1 (IL-2 2.5 ng/mL) [17] = experiment: as above; conditions: 72 h
DERL-7 (IL-2 2.5 ng/mL) [18] = experiment: as above; conditions: 72 h
[19] = tested on: normal primary NK cells, pool 1 (3 donors) (IL-2 2.5 ng/mL); experiment: as above; conditions: 72 h
NK-92 (IL-2 2.5 ng/mL) [20] = experiment: as above; conditions: 72 h
NKL (IL-2 2.5 ng/mL) [21] = experiment: as above; conditions: 72 h
YT (IL-2 2.5 ng/mL) [22] = experiment: as above; conditions: 72 h
[23] = tested on: normal primary NK cells, pool 3 (3 donors) (IL-2 2.5 ng/mL); experiment: as above; conditions: 72 h
SNK-6 (IL-2 2.5 ng/mL) [24] = experiment: as above; conditions: 72 h
[25] = tested on: normal primary NK cells, pool 1 (3 donors), resting (IL-2 0 ng/mL); experiment: as above; conditions: 72 h
[26] = tested on: normal primary NK cells, pool 2 (3 donors) (IL-2 2.5 ng/mL); experiment: as above; conditions: 72 h
NK-YS (IL-2 2.5 ng/mL) [27] = experiment: as above; conditions: 72 h
[28] = tested on: normal NK cells expanded with K562-aAPC; experiment: percent inhibition of viability; higher = more inhibition; conditions: 72 h, IL-2 2.5 ng/mL
Experimental: as §1

COc1ccc2c(OCc3nnc4ccc(-c5ccccc5)nn34)ccnc2c1 [AMG-208] (max concentration tested 2500 nM)
Conditions	drug sensitivity score
DERL-7 (IL-2 2.5 ng/mL) [18]	0.89
IMC-1 (IL-2 20 ng/mL) [16]	0.02
KAI3 (IL-2 2.5 ng/mL) [15]	0.07
KHYG-1 (IL-2 2.5 ng/mL) [17]	0.59
NK-92 (IL-2 2.5 ng/mL) [20]	0.61
NK-YS (IL-2 2.5 ng/mL) [27]	0
NKL (IL-2 2.5 ng/mL) [21]	0
SNK-6 (IL-2 2.5 ng/mL) [24]	7.74
YT (IL-2 2.5 ng/mL) [22]	0.16
[1]	0
[19]	0
[23]	0
[25]	0
[26]	0

percent inhibition of viability [%]
Conditions	0.25 nM	2.5 nM	25 nM	250 nM	2500 nM
DERL-7 (IL-2 2.5 ng/mL) [5]	-3.09	-8.21	-1.7	-5.84	-4.71
IMC-1 (IL-2 20 ng/mL) [3]	-1.21	1.46	1.28	6.67	11.1
KAI3 (IL-2 2.5 ng/mL) [2]	-0.14	-2.19	-6.54	1.34	11.6
KHYG-1 (IL-2 2.5 ng/mL) [4]	-2.14	0.21	1.18	6.23	15.6
NK-92 (IL-2 2.5 ng/mL) [7]	0.24	-14.7	-6.65	10.4	13.1
NK-YS (IL-2 2.5 ng/mL) [14]	-3.94	-3.82	-0.96	1.47	6.08
NKL (IL-2 2.5 ng/mL) [8]	-4.88	-0.72	5.74	1.87	1.01
SNK-6 (IL-2 2.5 ng/mL) [11]	2.2	11.6	22.9	28.1	18.8
YT (IL-2 2.5 ng/mL) [9]	1.44	4.97	5.31	10	12.4
[6]	0.88	0.76	0.54	1.27	4.15
[10]	-8.14	-5.89	5.5	0.46	5.72
[12]	-15.8	-2.94	7.27	3.54	-2.41
[13]	-3.74	-5.68	4.86	9.98	4.41
[28]	-4.22	-2.93	1.22	-1.02	9.46

CC(C)N(C[C@H]1O[C@@H](n2cnc3c(N)ncnc32)[C@H](O)[C@@H]1O)[C@H]1C[C@@H](CCc2nc3cc(C(C)(C)C)ccc3[nH]2)C1 [EPZ-5676] (max concentration tested 1000 nM)
percent inhibition of viability [%]
Conditions	DERL-7 (IL-2 2.5 ng/mL) [5]	KAI3 (IL-2 2.5 ng/mL) [2]	KHYG-1 (IL-2 2.5 ng/mL) [4]	NK-92 (IL-2 2.5 ng/mL) [7]	NK-YS (IL-2 2.5 ng/mL) [14]	NKL (IL-2 2.5 ng/mL) [8]	SNK-6 (IL-2 2.5 ng/mL) [11]	YT (IL-2 2.5 ng/mL) [9]	[6]	[12]
0.1 nM	0.43	-1.4	-0.41	-12.3	-3.52	0.4	-2.4	-1.48	2.06	9.51
1 nM	5.23	-5	1.41	-21.5	-3.4	-6	4.63	-5.01	11	20.3
10 nM	1.69	-1.28	-1.91	-14.1	2.56	-2.76	8.19	-2.34	9.38	21
100 nM	4.27	5.24	7.32	5.88	4.51	18.4	3.31	7.03	13.4	20.5
1000 nM	-4.86	11.9	19.1	24.7	16.4	28.7	35.8	14.4	15.7	23.9

Conditions	drug sensitivity score
DERL-7 (IL-2 2.5 ng/mL) [18]	0
KAI3 (IL-2 2.5 ng/mL) [15]	0.23
KHYG-1 (IL-2 2.5 ng/mL) [17]	1.32
NK-92 (IL-2 2.5 ng/mL) [20]	1.76
NK-YS (IL-2 2.5 ng/mL) [27]	0.65
NKL (IL-2 2.5 ng/mL) [21]	3.3
SNK-6 (IL-2 2.5 ng/mL) [24]	2.24
YT (IL-2 2.5 ng/mL) [22]	0.67
[19]	1.75
[25]	0

COc1cc(Nc2ncc(F)c(Nc3ccc4c(n3)N(COP(=O)(O)O)C(=O)C(C)(C)O4)n2)cc(OC)c1OC [Fostamatinib] (max concentration tested 2500 nM)
Conditions	drug sensitivity score
IMC-1 (IL-2 20 ng/mL) [16]	0.89
[1]	2.26
[23]	0
[26]	0.74

percent inhibition of viability [%]
Conditions	0.25 nM	2.5 nM	25 nM	250 nM	2500 nM
IMC-1 (IL-2 20 ng/mL) [3]	-2.94	-0.51	-4.59	-3.53	-9.62
[10]	-14	-12.5	-10.8	-5.58	4.31
[13]	-8.88	-12.4	-4.65	-3.71	24.9
[28]	-1.89	-6.48	-4.68	-0.77	45.3

CC(C)NC[C@@H](C(=O)N1CCN(c2ncnc3c2[C@H](C)C[C@H]3O)CC1)c1ccc(Cl)cc1 [GDC-0068] (max concentration tested 10000 nM)
percent inhibition of viability [%]
Conditions	DERL-7 (IL-2 2.5 ng/mL) [5]	KAI3 (IL-2 2.5 ng/mL) [2]	KHYG-1 (IL-2 2.5 ng/mL) [4]	NK-92 (IL-2 2.5 ng/mL) [7]	NK-YS (IL-2 2.5 ng/mL) [14]	NKL (IL-2 2.5 ng/mL) [8]	SNK-6 (IL-2 2.5 ng/mL) [11]	YT (IL-2 2.5 ng/mL) [9]	[6]	[12]
1 nM	-2.5	12.9	7.35	1.45	7.4	2.85	-1.73	10.5	5.46	10.8
10 nM	3.47	16.7	8.11	-2.57	4.06	7.83	-7.94	10.4	-2.99	1.35
100 nM	-3.9	21.2	10.8	7.49	8.96	4.25	17.9	9.38	2.75	6.46
1000 nM	40.2	10.2	8.62	1.85	7.83	3.13	-5.92	5.43	4.21	4.26
10000 nM	83.9	27.1	22.8	29	20.6	17.5	24.9	17.3	24.8	45.6

Conditions	drug sensitivity score
DERL-7 (IL-2 2.5 ng/mL) [18]	9.75
KAI3 (IL-2 2.5 ng/mL) [15]	0
KHYG-1 (IL-2 2.5 ng/mL) [17]	1.8
NK-92 (IL-2 2.5 ng/mL) [20]	1.5
NK-YS (IL-2 2.5 ng/mL) [27]	1.05
NKL (IL-2 2.5 ng/mL) [21]	0.78
SNK-6 (IL-2 2.5 ng/mL) [24]	0.68
YT (IL-2 2.5 ng/mL) [22]	0
[19]	1.57
[25]	3.04

CC(C)NC[C@@H](C(=O)N1CCN(c2ncnc3c2[C@H](C)C[C@H]3O)CC1)c1ccc(Cl)cc1 [Ipatasertib] (max concentration tested 10000 nM)
Conditions	drug sensitivity score
IMC-1 (IL-2 20 ng/mL) [16]	0
[1]	3.79
[23]	2.08
[26]	3.09

percent inhibition of viability [%]
Conditions	1 nM	10 nM	100 nM	1000 nM	10000 nM
IMC-1 (IL-2 20 ng/mL) [3]	0.54	2.26	1.36	0.96	9.26
[10]	5.55	1.78	8.02	9.98	29.5
[13]	-8.24	-4.37	0.07	8.84	36
[28]	4.44	5.94	6.06	17.9	39.6

N[C@@H](Cc1ccc(N(CCCl)CCCl)cc1)C(=O)O [Melphalan] (max concentration tested 12500 nM)
Conditions	drug sensitivity score
IMC-1 (IL-2 20 ng/mL) [16]	0
[1]	0
[23]	0
[26]	0

percent inhibition of viability [%]
Conditions	1.25 nM	12.5 nM	125 nM	1250 nM	12500 nM
IMC-1 (IL-2 20 ng/mL) [3]	-3.81	-2.31	-1.39	0.63	0.47
[10]	-7.72	-2.35	-4.09	0.34	3.45
[13]	-5.43	-5.03	-6.41	7.99	1.1
[28]	-1.69	-2.91	-0.58	0.8	6.31

CN(C)C(=N)NC(=N)N [Metformin] (max concentration tested 100000 nM)
Conditions	drug sensitivity score
IMC-1 (IL-2 20 ng/mL) [16]	0
[1]	0
[23]	0
[26]	1.13

percent inhibition of viability [%]
Conditions	10 nM	100 nM	1000 nM	10000 nM	100000 nM
IMC-1 (IL-2 20 ng/mL) [3]	-3.89	-0.13	-3.1	-1.36	5.51
[10]	-3.35	0.87	5.02	0.46	8.34
[13]	-3.45	0.32	10.6	8.75	12.4
[28]	-6.08	-6.07	-1.23	6.39	2.64

CC(C)N(C[C@H]1O[C@@H](n2cnc3c(N)ncnc32)[C@H](O)[C@@H]1O)[C@H]1C[C@@H](CCc2nc3cc(C(C)(C)C)ccc3[nH]2)C1 [Pinometostat] (max concentration tested 1000 nM)
Conditions	drug sensitivity score
IMC-1 (IL-2 20 ng/mL) [16]	0
[1]	0.26
[23]	0
[26]	0

percent inhibition of viability [%]
Conditions	0.1 nM	1 nM	10 nM	100 nM	1000 nM
IMC-1 (IL-2 20 ng/mL) [3]	-9.34	-4.07	-2.87	-4.72	3.86
[10]	-1.26	13	2.22	1.46	-1.92
[13]	-6.45	6.92	6.49	-0.47	0.82
[28]	-0.7	-1.47	-2.36	3.36	12.5
